According to PMC3646032 (PLoS ONE, 2013):
Where “and” joins values, the source holds several entries; their conditions need not be identical. Equal entries are not always repeated.

What was measured:
[1] = system: E. coli SKI (aroK-encoded); details: cited from earlier work
[2] = system: E. coli SKII (aroL-encoded); details: cited from earlier work
[3] = system: EcSK (SK from Erwinia chrysanthemi); parameters: method as in PMID 11369852; details: cited from earlier work
[4] = 1-COOH, in solution; cited from earlier work
[5] = biological target: M. tuberculosis Shikimate Kinase (MtSK) (Mycobacterium tuberculosis, UniProt P9WPY3); type: biochemical
[6] = biological target: T1, MtSK (Mycobacterium tuberculosis, UniProt P9WPY3); test: biochemical; type: binding; details: 298.15 K, Hepes, pH 7.6
[7] = biological target: EcSK (aroL-encoded SK from Erwinia chrysanthemi); parameters: method as in PMID 11369852; details: cited from earlier work
[8] = biological target: T1, MtSK; details: cited from earlier work
[9] = biological target: T1, MtSK; test: Equilibrium fluorescence spectroscopy, intrinsic tyrosine fluorescence; type: binding; details: 25°C, pH 7.6
Experimental: MtSK intrinsic protein fluorescence measurements were carried out to both determine the order of substrate/product addition/dissociation on/from the catalytic site and distinguish the enzyme kinetic mechanism. As MtSK has no tryptophan residues, changes in protein tyrosine fluorescence (the polypeptide chain of MtSK has 3 Tyr residues) upon ligand binding were monitored. Fluorescence measurements were carried out in a RF-5301 PC Spectrofluorophotometer (Shimadzu) at 25°C. Excitation wavelength was 280 nm and emission spectra were collected from 300 to 500 nm. The maximum values of fluorescence intensity at 315 nm values were plotted as a function of increasing ligand concentration. Excitation and emission slits were 5 nm. As protein tyrosine typically has a low sensitivity (low molar absorption coefficient and low fluorescence quantum yield), MtSK concentration for binding experiments was 10 µM. […]
Equilibrium fluorescence spectroscopy data were fitted to Eq. 4, in which F is the observed fluorescence, F 0 is the initial fluorescence, F ∞ is the maximum change in fluorescence at saturating ligand (L) concentration, and K D represents the equilibrium dissociation constant for protein:ligand binary complex formation.

T1 sequence (P9WPY3 2-176): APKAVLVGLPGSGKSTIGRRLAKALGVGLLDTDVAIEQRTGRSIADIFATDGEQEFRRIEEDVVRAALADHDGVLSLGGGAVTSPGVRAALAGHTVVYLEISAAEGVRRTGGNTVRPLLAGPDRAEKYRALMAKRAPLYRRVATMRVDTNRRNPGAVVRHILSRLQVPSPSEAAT
Sequence of M. tuberculosis Shikimate Kinase (MtSK) (P9WPY3 2-176): as above

For `O=C(O)C1=C[C@@H](O)[C@@H](O)[C@H](O)C1` [SKH, [3R-(3α,4α,5β)]3,4,5-trihydroxy-1-cyclohexene-1-carboxylic acid], the “K SKH” value [1] is given as 20×10 ^3 µM, the KSKH [1] is given as 20 mM and the “K SKH” value [2] is given as 200 µM. The “K SKH” value [3] was 310 µM and the pK a [4] was 4.47.

In the case of `c1c[nH]cn1` [imidazole], the “enzyme inhibition of MtSK activity” value ([5]; 50 mM imidazole in assay mixture) is reported as “No enzyme inhibition” and the “enzyme velocity of MtSK” value ([5]; assay mixture containing 50 mM imidazole (9.2 U mL^−1 in its absence)) is reported as 9.5 U mL^−1.

In the case of `Nc1ncnc2c1ncn2[C@@H]1O[C@H](COP(=O)(O)OP(=O)(O)OP(=O)(O)O)[C@@H](O)[C@H]1O` [ATP, adenosine 5'-triphosphate], the “K MgATP (Michaelis constant)” value ([5]; pH 7.6) is reported as 112 µM and 112 (±4) µM, the “k cat/KMgATP” value ([5]; true steady-state, 25°C, pH 7.6) is reported as 5.4 (±0.7)×10^5 M^−1 s^−1 and the “-TΔS” value [6] is reported as 0.044 (±0.007) kcal mol^−1. The Kd [6] was 196 µM, the ΔG [6] was −5.1 (±0.8) kcal mol^−1 and the ΔH [6] was −5.1 (±0.3) kcal mol^−1. The ΔS [6] was −0.15 (±0.02) cal mol^−1 K^−1, the “K MgATP” value [2] was 160 µM and the “k cat/KMgATP” value [2] was 200000 M⁻¹ s⁻¹. For the same compound, the “K MgATP” value [3] was 620 µM, the “k cat/KMgATP” value [3] was 56000 M⁻¹ s⁻¹ and the Kd [7] was 2600 µM. For the same compound, the “K MgATP” value [8] was 83 (±4) µM and the “k cat/KMgATP” value [8] was 530000 M⁻¹ s⁻¹.

For `Nc1ncnc2c1ncn2[C@@H]1O[C@H](COP(=O)(O)OP(=O)(O)O)[C@@H](O)[C@H]1O` [ADP, adenosine 5′-diphosphate], the “-TΔS” value [6] was 7.9 (±0.2) kcal mol^−1, the Kd [6] was 562 µM and the ΔG [6] was −4.4 (±0.2) kcal mol^−1. The ΔH [6] was −12.4 (±0.2) kcal mol^−1 and the ΔS [6] was −27 (±1) cal mol^−1 K^−1.

With `O=C(O)C1=C[C@@H](OP(=O)(O)O)[C@@H](O)[C@H](O)C1` [S3P, shikimate 3-phosphate] the “change in intrinsic protein fluorescence upon binding to free MtSK” value [9] was “No change in protein fluorescence” and the “binding to free enzyme detected by ITC” value [6] was “no binding”.
